Data on one compound can be found in patent publication US5202434A, “8a-aza-8a-homoerythromycin lactams” (Merck & Co., Inc., priority 1992, dated 1993).

What all share (test): MIC, liquid turbidimetric microtiter broth method
Common to all, as to assay type: cell-based

The subject of assay [1] is Streptococcus viridans CL 2943. The note with it: CL2943. From the text:
(§1) The compounds of formula (II) will show antibacterial activity against a range of aerobic Gram positive and negative bacteria as shown in the following Table. The assay employs a liquid turbidimetric microtiter method for determination of the minimum inhibitory concentration (MIC) in broth media. […] The MIC is generally not an absolute value but rather a concentration range that falls within a two-fold dilution limit. Generally, twelve two-fold dilutions of the test compound are employed with the initial concentration set at 128 mcg/ml.

A further assay relates to Escherichia coli MB 4926. As to conditions: MB4926.
Excerpt: as §1

The subject of assay [2] is Steptococcus pneumoniae CL 2883.
Excerpt: as §1

≈ marks a conversion by molar mass, not a printed value.

Take `CC[C@H]1OC(=O)[C@H](C)[C@@H](O[C@H]2C[C@@](C)(OC)[C@@H](O)[C@H](C)O2)[C@H](C)[C@@H](O[C@@H]2O[C@H](C)C[C@H](N(C)C)[C@H]2O)[C@](C)(O)C[C@@H](C)NC(=O)[C@H](C)[C@@H](O)[C@]1(C)O` [8aaza-8a-homoerythromycin A, 8a-Aza-8a-homoerythromycin A]: the MIC (in general, the least concentration at which growth counts as inhibited) in assay [1] is 4 µg/mL (≈ 5.34 µM); in the assay on Escherichia coli MB 4926 it was 4 µg/mL (≈ 5.34 µM); in assay [2], no more than 0.06 µg/mL.
